# Numbered stars: 1 amine (or outer) side, 2 acyl side, 3 side chain; on linkers, the order of the positions; unused ones are H or OH. Square brackets hold non-standard residues; d marks the D form. Suc = O=C(CCC(=O)[*:2])[*:1]; NMeV = CN[C@H](C(=O)O)C(C)C; βAla = NCCC(=O)O
# Columns and labels:
# Format in all cases: in vivo
# Tilapia fish [1] = assay: Experiment #2: tilapia fed AN6-coated feed 60-150 dph (growth, biomass, FCR, intestine weight)
# Description: MeM (powder, manufactured by Bern Aqua), Nanolis P1, P2 (pellet sizes of 0.8-1 mm, 1-1.5 mm, respectively, manufactured by Ocialis) and Tilaphi 1, 2 & 3 (pellet sizes of 1-1.5 mm, 2 mm, 3-5.5 mm, respectively, manufactured by Ocialis) were used as basic regular feed. The basic feed was coated according to the following general procedure: 9 ml or 3 ml of Tris-HCl solution (50 mM, pH=8.8) were diluted to 60 ml with distilled H2O. For AN6-containing feed preparation, desired amounts of AN6 peptide (a TK antagonist having the sequence Succ-Asp-Ser-D-Trp—N(Me)Val-βAla-Leu-Met-NH2, SEQ ID NO. 6) were dissolved in the Tris-HCl solution. Then, each of the various solutions was mixed with 3 Kg of basic feed pellets using an electric mixer. The peptide-feed mixtures where then dried either in oven at 40° C. for 24 hours or in drying drum for few hours to form coated pellets. The total amount of each feed was 3 Kg.
# Tilapia fish (n=1440) have been raised from day 60 to day 119 post-hatch in indoor tanks and then transferred to outdoor tanks (120-150 dph) followed by cages in ponds (150-243 dph). The fish were fed to apparent satiation 2-4 times a day, for 90 days (60-150 dph) either with regular feed (Feed A, Group C, n=60 in 8 repeats); feed coated with AN6 peptide solution in ratio of 5 mg AN6/Kg feed (5 ppm, Feed B, Group D, n=60 in 8 repeats); or feed coated with AN6 peptide solution in ratio of 10 mg AN6/Kg feed (Feed C, Group E, n=60 in 8 repeats).
# During the experimental period, the average fish weight was measured, and the daily growth rate was calculated by dividing the average weight gained in each measuring period by the number of days since the last measurement. […] However, from age 200 dph, a considerable jump in fish performance and FCR was observed, reaching a maximal level at the last measurement point (243 dph, +8.4% average weight, +18% weight gain, +10% total biomass; FIG. 1, experiment #2 and FIG. 3B). The effect on growth was evident even when considering differences in initial body weight (FIG. 2B).
# (§1) In order to determine the efficiency of feed conversion into fish substance in experiments (#1, #2, #3), FCR values which reflect the amount of feed needed to grow a kilogram fish, were calculated for each period and for the entire fish growth period. In order to determine the amount of consumed feed, the amount of feed provided was measured daily for each tank and the leftovers were collected, weighted and subtracted from the total amount of feed. Dead fish were removed every day before each feeding and then counted and weighed for accurate calculation of feed intake and FCR. It is to be noted that high mortality can still influence FCR values since feed eaten by fish that have later died cannot be subtracted from the total feed consumed and on the other hand periodic total fish weight gained is underestimated (dead fish are not included). Three FCR values were calculated according to the following formulas:
# At the end of the experiment described in example 3 (experiment #2), 6 fish from each cage/tank (3 females and 3 males, n=24 per treatment group) were sacrificed and whole intestine was removed and weighted.
# Tilapia fish [2] = test system: Tilapia fish
# Description: At the end of each of the experiments described in examples 2, 3 and 5 (#1, #2, #3), a sample of fish from each treatment group was sacrificed and dissected for measurements of internal parts as indicated in Table 9.
# Tilapia fish [3] = assay: Feed conversion rate (FCR) calculated over experiments #1, #2, #3
# Description: as §1
# Specifically, improved FCR is observed 30 to 90 days after treatment initiation and can last at least 100 days after treatment stopped.
# Tilapia fish [4] = assay: Experiment #1: tilapia fed AN6-coated feed in two phases (growth, biomass, mortality, FCR); conditions: second phase, adult fish 195-263 dph; 50 days of 30 mg AN6/Kg feed; compared to control
# Tilapia fish [5] = assay: Experiment #2: tilapia fed AN6-coated feed 60-150 dph (growth, biomass, FCR, intestine weight); conditions: 5 mgAN6/Kg feed from 60 dph for 150 days
# [6] = 10 mg/Kg feed, Group E, last measurement point 243 dph, vs control
# [7] = 10 ppm AN6, experiments 2 & 3, vs control
substance,measurement,setting,value
Succ-Asp-Ser- D-Trp -N(Me)Val-βAla-Leu-Met-NH2 (Suc-DS[dW][NMeV][βAla]LM-NH2; SMILES CSCC[C@H](NC(=O)[C@H](CC(C)C)NC(=O)CCNC(=O)[C@H](C(C)C)N(C)C(=O)[C@@H](Cc1c[nH]c2ccccc12)NC(=O)[C@H](CO)NC(=O)[C@H](CC(=O)O)NC(=O)CCC(=O)O)C(N)=O) [AN6],increase in fish average weight and growth rate,"Tilapia fish [1]; 10 mg/Kg feed, Group E (fed 60-150 dph), age 95 to 165 dph, vs control",~+3%
same,average weight,Tilapia fish [1]; [6],+8.4%
same,total biomass,Tilapia fish [1]; [6],+10%
same,weight gain,Tilapia fish [1]; [6],+18%
same,number of fish in the upper 6.5th decile,"Tilapia fish [1]; 10 mgAN6/Kg feed, Group E (control 2.8%)",7.2%
same,number of fish in the lower 2th decile,"Tilapia fish [1]; 10 mgAN6/Kg feed, Group E (control 18.4%)",13.2%
same,weight gain of male and female populations analysed separately,"Tilapia fish [1]; FIG. 4, 5 and 10 mg/Kg for 90 days (60-150 dph)",better performance than control
same,ratio between intestine weight and fish weight (ISI),"Tilapia fish [1]; male fish treated with 10 mg AN6/Kg feed, end of experiment #2, vs control, FIG. 6",+21%
same,female fillet ratio,Tilapia fish [2]; [7],+3.38%
same,male fillet ratio,Tilapia fish [2]; [7],+5.6%
same,gonad size and histology,Tilapia fish [2]; in vivo,No significant effect
same,"kidney, liver and fat weight and rates",Tilapia fish [2]; in vivo,no effect
same,FCR-growth relationship,"Tilapia fish [3]; 5, 10 mg and 30 mg AN6/Kg feed in other cases (experiments #2 and #3), with decrease in feed intake",improved FCR which did not coincide with improved growth
same,FCR in adult fish,"Tilapia fish [3]; all AN6 peptide treatments, FIGS. 5A, 5B, 10, 11, 12",significantly improves FCR
same,duration of improved FCR after treatment stopped,Tilapia fish [3]; in vivo,at least 100 days
same,increase in average fish weight,Tilapia fish [4],+6.84%
same,increase in average weight gained,Tilapia fish [4],+13%
same,FCR,Tilapia fish [5],improved FCR significantly
same,growth,Tilapia fish [5],not sufficient to improved growth

# — patent US20220167645A1, “METHODS OF IMPROVING FISH FEED CONVERSION RATE AND SURVIVAL” (AQUINOVO LTD., priority 2019, published 2022)
